# Assay results as given in patent EP4026700A1, “INPRINTING” (Smart Coloring GmbH, priority 2021, dated 2022).
# Assay: Solubility in double distilled water
# Format: physicochemical
substance,measurement,value
Disperse Blue 56,solubility in double distilled water,about 14 mg/l
